Experimental data as given in US4870098A, “Antagonists of leukotriene D4” (G. D. Searle & Co., priority 1989, dated 1989).

How the values were obtained:
[1] = tested on: LTD4-induced bronchoconstriction; assay: In Vivo Bronchoconstriction Assay (LTD4-induced intratracheal insufflation pressure increase); design: species or system guinea pig (Hartly); settings: guinea pig, 2000 units of LTD4 IV
Method: The compounds are tested in vivo as follows. Adult male fasted Hartly guinea pigs weighing 300-350 g are pretreated with pyrilamine and indomethacin to block the bronchoconstricture effects of endogenous histamine and the synthesis of thromboxane A2 respectively. Compounds of the invention are administered IV or IG at appropriate times prior to the IV administration of 2000 units of LTD4. Intratracheal pressure is monitored prior to and subsequent to LTD4 in animals anesthetized with pentobarbital and attached to a rodent respirator. Compounds which antagonize the direct component of LTD4 action on respiratory smooth muscle inhibit intratracheal insufflation pressure increases (P< or =0.05) caused by LTD4. FPL 55712 is used as a control.

[2] = target: T1, guinea pig ileum (LTD4-induced contraction) (Cavia porcellus, UniProt Q2NNR5); assay: LTD4 Antagonism in Guinea Pig Ileum; type: cell-based; settings: pA2, negative log of antagonist concentration required to produce a dose-ratio of 2
T1 construct: Fresh segments of guinea pig ileum; from tissue; host or cells: guinea pig ileum segments
T1 sequence (Q2NNR5 1-340): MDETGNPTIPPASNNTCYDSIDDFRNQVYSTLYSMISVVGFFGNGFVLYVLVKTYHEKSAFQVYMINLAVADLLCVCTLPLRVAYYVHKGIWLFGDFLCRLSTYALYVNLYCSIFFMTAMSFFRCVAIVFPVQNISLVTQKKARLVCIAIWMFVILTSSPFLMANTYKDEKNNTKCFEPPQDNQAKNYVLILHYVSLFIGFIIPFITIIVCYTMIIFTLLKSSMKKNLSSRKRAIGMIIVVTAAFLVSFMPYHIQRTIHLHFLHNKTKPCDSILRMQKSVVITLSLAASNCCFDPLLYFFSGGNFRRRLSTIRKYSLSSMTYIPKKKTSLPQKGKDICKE
Method: LTD4 Antagonism in Guinea Pig Ileum
Fresh segments of guinea pig ileum were suspended in 2 ml. tissue baths containing oxygenated modified Tyrodes solution. After an equilibration period, an agonist dose-response curve was generated by exposing each tissue to 4 different LTD4 doses and measuring the ensuing contractile heights. The ileum segments were washed and rested between exposures to agonist. Following this, the tissues were incubated with a single concentration of test compound and the agonist dose-response procedure was repeated. The dose ratio is a measure of the antagonist's ability to shift the agonist dose-response curve to the right. It is derived as the concentration of agonist necessary to reach a given response level in the presence (A') versus the absence (A) of antagonist. For example, if the test concentration of compound had no effect on the agonist-induced response (A'=A) the dose-ratio would approximate 1. […] One dose-ratio value is determined for each strip of ileum used to test antagonist. […] Schild analysis examines the linearity of the function described by the dose-ratios written as log [(A'/A)-1] versus antagonist concentration. If the linearity is […] and the slope approximates 1, inhibition is considered to be competitive. The pA2 is the negative log of the antagonist concentration required to produce a dose-ratio of 2. […]

LTB4 receptor = target: T2, LTB4 receptor (Homo sapiens, UniProt Q15722); assay: LTB4 Receptor Binding Assay (human neutrophils); settings: 0.6 nano M (3H) LTB4, 0° C., 45 minutes, read-out: LTB4 antagonism: Receptor Binding Assay (IC50)
T2 construct: Neutrophils are purified from venous blood of normal human donors; endogenous in cells; host or cells: human neutrophils from venous blood
Method: (§1) Preparation of Human Neutrophils
(§2) Neutrophils are purified from venous blood of normal human donors using standard techniques of dextran sedimentation, centrifugation on Histopaque sterile solution (Sigma) and hypotonic lysis of erythrocytes (Boyum, A., Isolation of Leukocytes From Human Blood: Further Observations. Scand. J. Lab. Clin. Invest. 21 (Suppl. 97): 31, 1968). The purity of isolated neutrophils was ≥95%.
LTB4 Receptor Binding Assay
Neutrophils (4-6×10^6) in 1 ml Hanks' balanced salt solution containing 10 mM HEPES buffer (HBSS), pH 7.4 and […] nordihydroguaiaretic acid were incubated with 0.6 nano M (^3 H) LTB4 in the presence or absence of test compounds. The incubation was carried out at 0° C. for 45 minutes and terminated by adding 5 ml of ice-cold HBSS followed by rapid filtration of incubation mixture under vacuum through GF/C glass fiber filters. The filters were further washed with 10 ml HBSS and radioactivity was determined. […] All data refer to specific binding.

[3] = tested on: LTB4-induced dermal neutrophil chemotaxis (MPO activity); assay: Guinea Pig LTB4-Induced Dermal Chemotaxis; type: in vivo; settings: Cavia porcellus, method: 35 ng LTB4 intradermal, compound IV or IG, MPO at 4 hours, read-out: LTB4 antagonism: Guinea Pig LTB4 Induced Dermal Chemotaxis (IC50)
Method: Guinea Pig LTB4 -Induced Dermal Chemotaxis
Test compound was administered intravenously or intragastrically at various times prior to the injection of leukotriene B4 (LTB4). LTB4 was diluted in phosphate buffered saline (PBS) and 35 ng in 0.2 ml were injected intradermally into the shaven backs of anesthetized guinea pigs. PBS was injected as control. Four hours later, animals were sacrificed, skins removed and stored frozen (-70° C.). Injection sites were removed with a skin punch and mechanically homogenized (Polytron, Brinkmann Instruments). Myeloperoxidase (MPO), a marker enzyme for neutrophils, was extracted by 0.5% hexadecyltrimethylammonium bromide in 50 mM potassium phosphate buffer (pH 6.0), using sonication and freeze-thaw procedures. After centrifugation (40,000×g, 30 minutes), enzyme activities in the supernatants were assayed spectrophotometrically (A460) by measuring the decomposition of hydrogen peroxide with ortho-dianisidine after 15 minutes. […] In guinea pigs the level of MPO activity increased with the amount of LTB4 injected.

[4] = target: T3, LTD4 receptor (guinea pig lung receptors) (Cavia porcellus, UniProt Q2NNR5); assay: Leukotriene Receptor Binding Assay (LTD4 receptor binding, guinea pig lung membrane); settings: LTD4 binding to guinea pig lung membrane receptors; read-out: LTD4 antagonism: Receptor Binding Assay (IC50)
T3 construct: isolated from guinea pig lung membrane; from tissue; host or cells: guinea pig lung membrane
T3 sequence (Q2NNR5 1-340): T1 sequence (Q2NNR5 1-340)
Method: Leukotriene Receptor Binding Assay
The in vitro LTD4 receptor binding assay is carried out as follows:
Specific binding of titrated LTD4 to a fixed number of guinea pig lung receptors, isolated from guinea pig lung membrane, is measured in the presence and absence of test compound. The initial screening dose (1×10^-5 M) is considered active if the specific binding of the LTD4 is reduced by 45% or more. Active compounds are tested in a dose-response manner to determine IC50 values.

[5] = tested on: human neutrophils (myeloperoxidase release); assay: Human Neutrophil Degranulation Assay; type: cell-based; settings: table head LTB4 antagonism (method: LTB4 5×10^-8 M or f-met-leu-phe 5×10^-6 M)
Method: as §1, §2
Human Neutrophil Degranulation Assay
Neutrophil degranulation was determined by measuring the release of myeloperoxidase activity into the incubation medium. Neutrophils (3×10^6) in 1 ml HBSS solution were preincubated with cytochalasin B(5μg) at 37° C. for 5 minutes, followed by preincubation with test compounds for 7 minutes. […] The supernatants and the pellet-extracts were then assayed spectrophotometrically for myeloperoxidase activity by determining the rate of decomposition of H2 O2 with o-dianisidine as hydrogen donor as described by Renlund, et al. (Renlund, D. G., MacFarlane, J. L., Christensen, R. D., Lynch, R. E., and Rothstein, G., A Quantitive And Sensitive Method for Measurement of Myeloperoxidase, Clinical Research 28:75A, 1980). Myeloperoxidase activity released into the supernatant was expressed as the percent of the average total activity (pellet plus supernatant).

T2 sequence (Q15722 whole entry): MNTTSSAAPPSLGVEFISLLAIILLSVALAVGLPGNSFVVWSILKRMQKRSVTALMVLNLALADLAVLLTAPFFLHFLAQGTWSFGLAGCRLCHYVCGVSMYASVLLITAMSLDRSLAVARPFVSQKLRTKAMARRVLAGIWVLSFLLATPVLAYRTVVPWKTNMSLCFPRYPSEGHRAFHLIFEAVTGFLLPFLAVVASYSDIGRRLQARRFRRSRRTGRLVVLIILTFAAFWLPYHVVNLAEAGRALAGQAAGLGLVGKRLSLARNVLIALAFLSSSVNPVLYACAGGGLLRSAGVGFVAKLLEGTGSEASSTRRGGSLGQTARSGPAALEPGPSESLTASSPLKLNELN

Kb [2]: 0.0457 µM
IC50 (LTB4 receptor): 0.8 µM
IC50 [3]: 8.3 µM
IC50 [4]: 6.15 µM
IC50 [5]: 7.3 µM
Compound: CCCc1c(OCCCSCC2COC3(CCC(CC(=O)O)C3)S2)ccc(C(C)=O)c1O (stereo not drawn) [Example 2, 3-[[[3-(4-acetyl-3-hydroxy-2-propylphenoxy)propyl]thio]methyl]-1-oxa-4-thiaspiro[4.4]nonane-7-acetic acid]
LTD4 antagonism: In Vivo Bronchoconstriction Assay (% Inhibition at 5 mpk. IV) [1]: 94.7%
